Among the data in patent US20020173515A1, “Antiproliferative substituted 5-thiapyrimidinone and 5-selenopyrimidinone compounds” (priority 1992, published 2002) are IC50, Ki and melting point values, retold here.

Data set [1] deals with CCRF-CEM, a human lymphoblastic leukemia line of T-cell origin. The experiment in a line: Cellular growth inhibition, CCRF-CEM (MTT-tetrazolium reduction). The settings on record: 120 h, 5 days continuous exposure. The class given is cell-based. The protocol: (§1) Cellular growth in the presence of the compounds according to the present invention was assessed using two cell lines: the L1210 murine leukemia (ATCC CCL 219) and CCRF-CEM, a human lymphoblastic leukemia line of T-cell origin (ATCC CCL 119). Both lines were maintained in RPMI 1640 medium containing 5% heat-inactivated fetal bovine serum without antibiotics.
(§2) Growth was measured over 3 days (L1210) or 5 days (CCRF-CEM) of continuous exposure to varying concentrations of each test compound added 4 hours after initial cell plating by the MITT-tetrazolium reduction assay of Mosmann T. J. (Immunol. meth. 65, 55-63 (1983)), modified according to Alley et al. (Cancer Res. 48, 589-601 (1988)). Water insoluble derivatives were dissolved in DMSO and diluted to a final concentration of 0.5% solvent in cell cultures.
Background: Tetrazolium dyes change colour on reduction, which living cells bring about.

Data set [2] deals with L1210 murine leukemia. Briefly: Cellular growth inhibition, L1210 (MTT-tetrazolium reduction). The settings on record: Mus musculus, L1210, 72 h; 3 days continuous exposure; read-out: Cell Line, IC50 L1210. The class given is cell-based. As to the method: as §1, §2
Data set [3] relates to L1210-C192. Briefly: Cellular growth inhibition, L1210-C192. The class given is cell-based. The note with it: read-out: Cell Line, IC50 L1210-C192.
In data set [4] the target is T1, GARFT domain of the human enzyme (Homo sapiens, UniProt P22102).
T1 construct: The GARFT domain of the human enzyme was used
T1 sequence (P22102 810-1010 limits assumed): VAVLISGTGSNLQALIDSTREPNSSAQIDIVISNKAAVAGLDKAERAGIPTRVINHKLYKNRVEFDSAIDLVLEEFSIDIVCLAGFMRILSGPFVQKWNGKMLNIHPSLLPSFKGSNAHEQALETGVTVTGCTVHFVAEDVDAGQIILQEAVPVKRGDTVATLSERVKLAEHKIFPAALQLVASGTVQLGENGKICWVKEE
Briefly: GARFT inhibition constants, Method I (Cleland; spectrophotometric assay of Young et al.). Type of data set: biochemical. The settings on record: Method I (Examples 2-5 and 10); 22° C, 20 mM Hepes pH 7.5, 20 μM GAR, variable 10-formyl-5,8-dideazafolate. As to the method: Determination of Inhibition Constants for GARFT
The GARFT domain of the human enzyme was used. […] The assay mix contained 20 mM Hepes pH 7.5, 20 μM GAR, and variable amounts of 10-formyl-5,8-dideazafolate and inhibitor. For each inhibitor five concentrations were used ranging from 0 to approximately 3Ki. The data were plotted as the […] versus the reciprocal of the 10-formyl-5,8-dideaza-folate concentration. The inhibition constants were measured from a replot of the slopes of these lines obtained for each concentration of inhibitor versus the inhibitor concentration.

In data set [5] the target is T2, partially purified AICARFT from cultured CEM cells (Homo sapiens, UniProt P31939).
T2 construct: partially purified AICARFT from cultured CEM cells; endogenous in cells; host or cells: CEM cells (partially purified enzyme preparation)
The experiment in a line: AICARFT inhibition constants (modified Black et al. assay). The class given is biochemical. The settings on record: 37° C, 50 mM Tris-Cl pH 7.4, 50 μM racemic FTHF. The protocol:
Determination of Inhibition Constants for AICARFT
The assay method of Black et al. (Anal Biochem 90, 397-401 (1978)) was modified and used as described below. Buffers were degassed under vacuum prior to the preparation of substrate solutions and degassed buffer was used in the reaction mixtures. Reaction mixtures contained partially purified AICARFT from cultured CEM cells, inhibitor, 100 μM […] (5-aminoimidazole-4-carboxamide-ribonucleotide), 50 μM of a racemic mixture of N10-formyl-tetrahydrofolate (FTHF), 25 mM KCl, 50 mM 2-mercaptoethanol and 50 mM Tris-Cl pH 7.4. The reaction was initiated with the addition of the enzyme solution to a final concentration of 0.1 mg/mL and the reaction followed by monitoring the increase in absorbance at 298 nm at 37° C. (ε298=28 mM cm^−1).
AICARFT inhibition constants (Ki) were determined from the dependence of the steady-state catalytic rate upon inhibitor and substrate concentration. The type of inhibition observed and the determination of Ki was performed as described above for inhibitors of GARFT with the appropriate substrates and the AICARFT assay. Treatment of experimental data was essentially the same.

The target in data set [6] is T3, catalytic domain of the human GARFT (Homo sapiens, UniProt P22102).
T3 construct: Reaction mixtures contained the catalytic domain of the human GARFT
T3 sequence (P22102 810-1010 limits assumed): T1 sequence (P22102 810-1010 limits assumed)
Briefly: GARFT inhibition constants, Method II (modified Young et al. assay). The class given is biochemical. The settings on record: Method II (Examples 6, 7, 8 and 9); 20° C, 50 mM Tris-Cl pH 7.5, 20 μM GAR, 10 or 20 μM FDDF. As to the method: Reaction mixtures contained the catalytic domain of the human GARFT, inhibitor, 20 μM glycinamide ribonucleotide (GAR), 10 or 20 μM N^10-formyl-5,8-dideazafolate (FDDF), and 50 mM Tris-Cl at pH 7.5.
GARFT constants (Ki) were determined from the dependence of the steady-state catalytic rate upon inhibitor and substrate concentration. […] The michaelis constant Km, was determined independently by the dependence of the catalytic rate upon FDDF concentration. Data for both the Km and Ki determinations were fitted by non-linear methods to the Michaelis equation or the Michaelis equation for competitive inhibition as appropriate.

pIC50, pKi: −log10 of the molar value.

T2 sequence (P31939 whole entry): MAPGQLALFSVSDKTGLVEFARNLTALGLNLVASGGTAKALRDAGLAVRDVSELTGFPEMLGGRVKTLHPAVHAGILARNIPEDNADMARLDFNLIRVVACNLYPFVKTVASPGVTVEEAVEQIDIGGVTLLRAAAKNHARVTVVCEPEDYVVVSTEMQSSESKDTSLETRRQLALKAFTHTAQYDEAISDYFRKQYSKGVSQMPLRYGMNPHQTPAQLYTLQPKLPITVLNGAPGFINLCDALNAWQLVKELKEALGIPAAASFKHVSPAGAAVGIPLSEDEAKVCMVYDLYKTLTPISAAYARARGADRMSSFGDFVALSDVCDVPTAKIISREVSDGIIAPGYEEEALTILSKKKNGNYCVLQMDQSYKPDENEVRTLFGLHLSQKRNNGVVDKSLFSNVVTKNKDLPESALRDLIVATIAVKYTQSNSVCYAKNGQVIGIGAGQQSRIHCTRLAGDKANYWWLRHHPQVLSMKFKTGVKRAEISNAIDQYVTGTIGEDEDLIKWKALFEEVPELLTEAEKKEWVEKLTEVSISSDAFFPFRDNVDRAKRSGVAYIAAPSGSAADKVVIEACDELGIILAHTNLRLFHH

One may read the pIC50 as −log10 of the IC50, conventionally taken in molar units. Consider `Nc1nc(N)c(SCCCc2ccc(C(=O)N[C@@H](CCC(=O)O)C(=O)O)cc2)c(=O)[nH]1` [Example 2, N-(4-(3-[2,6-diamino-4(3H)-oxopyrimidin-5-yl)thio]propyl)benzoyl-(S)-glutamic Acid], for which the negative-log IC50 (pIC50) in data set [1] is 7.19; in data set [2], 7.10; in data set [3], 5.30.

By pKi is commonly meant the negative decadic logarithm of the Ki, by convention in mol/L. `Nc1nc(N)c(SCCCc2ccc(C(=O)N[C@@H](CCC(=O)O)C(=O)O)s2)c(=O)[nH]1` [Example 3, N-[2-(5-[3-([2,6-diamino-4(3H)-oxopyrimidin-5-yl]thio)propyl]-thienoyl)]-(S)-glutamic Acid]: the negative-log IC50 (pIC50) in data set [1] was 7.31; in data set [2], 7.40; in data set [3] it was 4.98. Further, in data set [4], the negative logarithm of the Ki (pKi) is 7.46.

Take `Nc1nc(N)c(SCCSc2ccc(C(=O)N[C@@H](CCC(=O)O)C(=O)O)cc2)c(=O)[nH]1` [Example 4, N-[(4-[2-([2,6-diamino-4(3H)-oxopyrimidin-5-yl]thio)ethyl]thio)benzoyl]-S-glutamic Acid]: the pIC50 in data set [1] was 6.89; in data set [2], 6.96; in data set [3], 5.00. Besides, in data set [4], the negative-log Ki (pKi) is 6.96.

On to `Nc1nc(N)c(SCCNc2ccc(C(=O)N[C@@H](CCC(=O)O)C(=O)O)cc2)c(=O)[nH]1` [Example 5, N-[4-(N-[2-([2,6-diamino-4(3H)-oxopyrimidin-5-yl]thio)ethyl]amino)benzoyl]-S-glutamic Acid], for which the pIC50 in data set [1] is 7.10; in data set [2], 7.05; in data set [3], 5.38. Besides, the pKi in data set [4] was 7.06.

Take `Cc1cc(CCCSc2c(N)nc(N)[nH]c2=O)sc1C(=O)N[C@@H](CCC(=O)O)C(=O)O` [Example 6]: the results for the negative-log IC50 (pIC50) in data set [1], in data set [2] and in data set [3] were 7.17, 6.92 and under 4.60, respectively.

As to `Cc1cc(C(=O)N[C@@H](CCC(=O)O)C(=O)O)sc1CCCSc1c(N)nc(N)[nH]c1=O` [Example 7], the pIC50 in data set [1] is 7.00; in data set [2], 7.05; in data set [3] it was 4.55.

Consider `Nc1nc(N)c(SCC2CCc3cc(C(=O)N[C@@H](CCC(=O)O)C(=O)O)sc3C2)c(=O)[nH]1` (stereo partly drawn) [Example 8, N-(6-[([2,6-diamino-4(3H)oxopyrimidin-5-yl]-thio)methyl]-4,5,6,7-tetrahydrobenzothieno-2-yl)-S-glutamic Acid], for which the values for the negative logarithm of the IC50 (pIC50) in data set [1], in data set [2] and in data set [3] were 8.10, 8.00 and 5.05, respectively.

By melting point is commonly meant the temperature of the solid-liquid transition. With `Nc1nc(N)c(SCCc2ccc(C(=O)N[C@@H](CCC(=O)O)C(=O)O)s2)c(=O)[nH]1` [Example 9, N-(5-[2-([2,6-Diamino-4(3H)-oxopyrimidin-5-yl]thio)ethyl]thieno-2-yl)-L-glutamic Acid], the melting point is 228 to 230 °C (dec.). Moreover, the pIC50 in data set [1] is 6.21. Also, the pIC50 in data set [2] is 6.60. In addition, in data set [5], the negative-log Ki (pKi) was 4.46. In data set [6], this molecule showed a pKi of 5.70. For the same molecule, in data set [3], the pIC50 is 4.66.

In the case of `Nc1nc(N)c(SCCc2ccc(C(=O)N[C@@H](CCC(=O)O)C(=O)O)cc2)c(=O)[nH]1` [Example 10], the melting point was in the range of 177 to 181 °C. For the same molecule, the pIC50 in data set [1] was 5.92. For the same molecule, the pIC50 in data set [2] was 5.82. In data set [5], this molecule showed a negative-log Ki (pKi) of 4.22. In data set [4], this molecule showed a negative logarithm of the Ki (pKi) of 4.52. Also, in data set [3], the pIC50 was 4.92.
